Results on 21 compounds are retold here after PubChem BioAssay (NCI).

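1) Cells in 96-well plates. 2) Compound, 48 h, 5 concentrations. 3) Linear interpolation between surrounding doses. 4) Unreached endpoint = highest concentration. At the GI50, growth is halved. TGI: total growth inhibition.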

One assay concerns BT-549 breast. Nature of the assay: NCI tumour cell line growth inhibition, 48 h.
For the compound `O=C(NCCCCCCNC(=O)n1cc(F)c(=O)[nH]c1=O)NCCCOCCOCCOCCOCCOCCOCCOCCOCCOCCOCCOCCOCCOCCOCCOCCOCCOCCOCCOCCOCCOCCCNC(=O)C(O)C(O)C(O)C(O)CO` (stereo unspecified), the TGI is above 100 µM.
The same measure, in the same setting: under `CCCC(=O)OC1C(C(O)CO)OC2OC(C)(C)OC21` (stereo unspecified) stands above 100 µM.

For another assay, the system named is MDA-N. Briefly: NCI tumour cell line growth inhibition, 48 h.
In turn, `O=C(NCCCCCCNC(=O)n1cc(F)c(=O)[nH]c1=O)NCCCOCCOCCOCCOCCOCCOCCOCCOCCOCCOCCOCCOCCOCCOCCOCCOCCOCCOCCOCCOCCOCCCNC(=O)C(O)C(O)C(O)C(O)CO` (stereo unspecified) had a TGI above 100 µM.
Turning to `CCCC(=O)OC1C(C(O)CO)OC2OC(C)(C)OC21` (stereo unspecified), the TGI was above 100 µM.

The next assay concerns NCI/ADR-RES ovarian. Briefly: NCI tumour cell line growth inhibition, 48 h.
For the compound `CCOC(=O)COc1ccccc1/C=C1\CCC(CN(C)C)C1=O` (stereo unspecified), the TGI is above 44 µM.
On to `O=C(NCCCCCCNC(=O)n1cc(F)c(=O)[nH]c1=O)NCCCOCCOCCOCCOCCOCCOCCOCCOCCOCCOCCOCCOCCOCCOCCOCCOCCOCCOCCOCCOCCOCCCNC(=O)C(O)C(O)C(O)C(O)CO` (stereo unspecified), for which the TGI was above 100 µM.
The compound `CCCC(=O)OC1C(C(O)CO)OC2OC(C)(C)OC21` (stereo unspecified) registered a TGI above 100 µM.

For another assay, the system named is P388 leukemia. Nature of the assay: NCI tumour cell line growth inhibition, 48 h.
The compound `CCOC(=O)COc1ccccc1/C=C1\CCC(CN(C)C)C1=O` (stereo unspecified) displayed a TGI of 1.54 µM.
`O=C(NCCCCCCNC(=O)n1cc(F)c(=O)[nH]c1=O)NCCCOCCOCCOCCOCCOCCOCCOCCOCCOCCOCCOCCOCCOCCOCCOCCOCCOCCOCCOCCOCCOCCCNC(=O)C(O)C(O)C(O)C(O)CO` (stereo unspecified) came in with a TGI above 100 µM.

For another assay, the system named is P388/ADR leukemia. Nature of the assay: NCI tumour cell line growth inhibition, 48 h.
`O=C(NCCCCCCNC(=O)n1cc(F)c(=O)[nH]c1=O)NCCCOCCOCCOCCOCCOCCOCCOCCOCCOCCOCCOCCOCCOCCOCCOCCOCCOCCOCCOCCOCCOCCCNC(=O)C(O)C(O)C(O)C(O)CO` (stereo unspecified) displayed a TGI above 100 µM.

In another assay the test system is PC-3 prostate. Nature of the assay: NCI tumour cell line growth inhibition, 48 h.
`O=C(NCCCCCCNC(=O)n1cc(F)c(=O)[nH]c1=O)NCCCOCCOCCOCCOCCOCCOCCOCCOCCOCCOCCOCCOCCOCCOCCOCCOCCOCCOCCOCCOCCOCCCNC(=O)C(O)C(O)C(O)C(O)CO` (stereo unspecified) yielded a TGI above 100 µM.
In the case of `CCCC(=O)OC1C(C(O)CO)OC2OC(C)(C)OC21` (stereo unspecified), the TGI was above 100 µM.

A further assay has as its system RXF-631 renal. Nature of the assay: NCI tumour cell line growth inhibition, 48 h.
`CCCNC1=C(C(=O)OCC)C(=O)CO1` gave a TGI above 100 µM.
Turning to `CC1(C)C(=NNC(=O)C[N+](C)(C)C)C(C)(C)C1=NNC(=O)C[N+](C)(C)C`, the TGI is above 100 µM.
Compound `CC1=C(Oc2ccccc2)C(CCC(=O)O)c2c(O)cc(Cl)c(O)c21` (stereo unspecified) registered a TGI above 100 µM.
`COc1cc(C(=O)C/C(CCCC(=O)Nc2ccccc2[N+](=O)[O-])=N/NC(=O)c2cc3ccccc3cc2O)ccc1O` gave a TGI above 100 µM.
For the compound `CCOC(=O)COc1ccccc1/C=C1\CCC(CN(C)C)C1=O` (stereo unspecified), the TGI was 34.4 µM.
For the compound `CSc1ccc(C2OC(=O)c3ccccc32)c2ccccc12` (stereo unspecified), the TGI was above 100 µM.
The same measure, in the same setting: under `Cc1[nH]ccc2c1[nH]c1cc(=O)ccc12` stands above 100 µM; under `C#CCOCn1cnc2c(Cl)ncnc21`, above 100 µM.
As to `O=c1/c(=C/c2ccccc2F)sc2nc3ccccc3n12`, the TGI is above 100 µM.
Take `CC1=C(C)C(=O)c2c(cc3ccccn23)C1=O`: the TGI was 21.7 µM.
On to `Cc1ccc(N=Cc2ccc3c(c2)OCO3)cc1C`, for which the TGI was above 100 µM.
Turning to `COC(C(=O)[O][Ge]([CH3])([CH3])[CH3])c1ccccc1` (stereo unspecified), the GI50 was above 100 µM and the TGI is above 100 µM.
On to `CCc1ccccc1NC(=O)C(=O)CC(=O)c1sc(Nc2ccccc2)nc1C`, for which the TGI was above 100 µM.
Same read-out and setting: next, `Nc1ccn(CCNCCn2cnc3nc(N)[nH]c(=O)c32)c(=O)n1`: above 100 µM.

Another assay relates to SN12K1 renal. Nature of the assay: NCI tumour cell line growth inhibition, 48 h.
Regarding `CCOC(=O)COc1ccccc1/C=C1\CCC(CN(C)C)C1=O` (stereo unspecified), the TGI was determined as 3.47 µM.
`O=C(NCCCCCCNC(=O)n1cc(F)c(=O)[nH]c1=O)NCCCOCCOCCOCCOCCOCCOCCOCCOCCOCCOCCOCCOCCOCCOCCOCCOCCOCCOCCOCCOCCOCCCNC(=O)C(O)C(O)C(O)C(O)CO` (stereo unspecified) registered a TGI above 100 µM.

The test system of a further assay is SNB-78 CNS. Nature of the assay: NCI tumour cell line growth inhibition, 48 h.
In turn, `CCCNC1=C(C(=O)OCC)C(=O)CO1` gave a TGI above 100 µM.
As for `CC1(C)C(=NNC(=O)C[N+](C)(C)C)C(C)(C)C1=NNC(=O)C[N+](C)(C)C`, the TGI is above 100 µM.
In the case of `CC1=C(Oc2ccccc2)C(CCC(=O)O)c2c(O)cc(Cl)c(O)c21` (stereo unspecified), the TGI was above 100 µM.
For `COc1cc(C(=O)C/C(CCCC(=O)Nc2ccccc2[N+](=O)[O-])=N/NC(=O)c2cc3ccccc3cc2O)ccc1O`, the TGI is above 100 µM.
`CCOC(=O)COc1ccccc1/C=C1\CCC(CN(C)C)C1=O` (stereo unspecified) had a TGI of 62.6 µM.
In turn, `CSc1ccc(C2OC(=O)c3ccccc32)c2ccccc12` (stereo unspecified) came in with a TGI above 100 µM.
`Cc1[nH]ccc2c1[nH]c1cc(=O)ccc12` came in with a TGI above 100 µM.
The same measure, in the same setting: under `C#CCOCn1cnc2c(Cl)ncnc21` stands above 100 µM; under `O=c1/c(=C/c2ccccc2F)sc2nc3ccccc3n12`, above 100 µM.
Regarding `CC1=C(C)C(=O)c2c(cc3ccccn23)C1=O`, the TGI was determined as 77.5 µM.
In turn, `O=C(NCCCCCCNC(=O)n1cc(F)c(=O)[nH]c1=O)NCCCOCCOCCOCCOCCOCCOCCOCCOCCOCCOCCOCCOCCOCCOCCOCCOCCOCCOCCOCCOCCOCCCNC(=O)C(O)C(O)C(O)C(O)CO` (stereo unspecified) registered a TGI above 100 µM.
For the compound `CCCC(=O)OC1C(C(O)CO)OC2OC(C)(C)OC21` (stereo unspecified), the TGI is above 100 µM.
Compound `Cc1ccc(N=Cc2ccc3c(c2)OCO3)cc1C` displayed a TGI above 100 µM.
Regarding `COC(C(=O)[O][Ge]([CH3])([CH3])[CH3])c1ccccc1` (stereo unspecified), the GI50 is above 100 µM and the TGI is above 100 µM.
`CC(=O)OCC1OC(OC2C(CSC3OC(COC(C)=O)C(OC(C)=O)C(OC(C)=O)C3OC(C)=O)OC(OC(C)=O)C(OC(C)=O)C2OC(C)=O)C(OC(C)=O)C(OC(C)=O)C1OC(C)=O` (stereo unspecified) displayed a TGI above 100 µM.
Regarding `NNC(=O)/C(=C/c1ccc(Cl)cc1Cl)NC(=O)c1ccccc1`, the TGI is above 100 µM.
With `CC1C=C(OC(=O)c2ccccc2)C(=O)C(n2cc(F)c(=O)[nH]c2=O)O1` (stereo unspecified), the TGI is above 100 µM.
`CCc1ccccc1NC(=O)C(=O)CC(=O)c1sc(Nc2ccccc2)nc1C`: the TGI is above 100 µM.
As for `CCN(CC)c1ccc(C(=O)c2ccccc2C(=O)O)c(O)c1`, the TGI was above 100 µM.
`Cc1ccc(NC(=O)C(=O)C(C#N)c2ccccc2C)cc1C` (stereo unspecified) yielded a TGI above 100 µM.
In the case of `Nc1ccn(CCNCCn2cnc3nc(N)[nH]c(=O)c32)c(=O)n1`, the TGI is above 100 µM.

Another assay has as its system T-47D breast. Nature of the assay: NCI tumour cell line growth inhibition, 48 h.
The compound `O=C(NCCCCCCNC(=O)n1cc(F)c(=O)[nH]c1=O)NCCCOCCOCCOCCOCCOCCOCCOCCOCCOCCOCCOCCOCCOCCOCCOCCOCCOCCOCCOCCOCCOCCCNC(=O)C(O)C(O)C(O)C(O)CO` (stereo unspecified) gave a TGI above 100 µM.
Still for that read-out and setting: next, `CCCC(=O)OC1C(C(O)CO)OC2OC(C)(C)OC21` (stereo unspecified): above 100 µM.

For the next assay, the system named is XF 498 CNS. Briefly: NCI tumour cell line growth inhibition, 48 h.
`CCCNC1=C(C(=O)OCC)C(=O)CO1` gave a TGI above 100 µM.
As to `CC1(C)C(=NNC(=O)C[N+](C)(C)C)C(C)(C)C1=NNC(=O)C[N+](C)(C)C`, the TGI is above 100 µM.
For `CC1=C(Oc2ccccc2)C(CCC(=O)O)c2c(O)cc(Cl)c(O)c21` (stereo unspecified), the TGI was above 100 µM.
On the same count and under the same terms, under `COc1cc(C(=O)C/C(CCCC(=O)Nc2ccccc2[N+](=O)[O-])=N/NC(=O)c2cc3ccccc3cc2O)ccc1O` stands above 100 µM; under `CSc1ccc(C2OC(=O)c3ccccc32)c2ccccc12` (stereo unspecified), above 100 µM; under `Cc1[nH]ccc2c1[nH]c1cc(=O)ccc12`, above 100 µM.
The same measure, in the same setting: next, `C#CCOCn1cnc2c(Cl)ncnc21`: above 100 µM; `O=c1/c(=C/c2ccccc2F)sc2nc3ccccc3n12`: above 100 µM.
Consider `O=C(NCCCCCCNC(=O)n1cc(F)c(=O)[nH]c1=O)NCCCOCCOCCOCCOCCOCCOCCOCCOCCOCCOCCOCCOCCOCCOCCOCCOCCOCCOCCOCCOCCOCCCNC(=O)C(O)C(O)C(O)C(O)CO` (stereo unspecified), for which the TGI was above 100 µM.
Consider `CCCC(=O)OC1C(C(O)CO)OC2OC(C)(C)OC21` (stereo unspecified), for which the TGI is above 100 µM.
Still for that read-out and setting: next, `Cc1ccc(N=Cc2ccc3c(c2)OCO3)cc1C`: above 100 µM; `CC(=O)OCC1OC(OC2C(CSC3OC(COC(C)=O)C(OC(C)=O)C(OC(C)=O)C3OC(C)=O)OC(OC(C)=O)C(OC(C)=O)C2OC(C)=O)C(OC(C)=O)C(OC(C)=O)C1OC(C)=O` (stereo unspecified): above 100 µM.
Same read-out and setting: next, `NNC(=O)/C(=C/c1ccc(Cl)cc1Cl)NC(=O)c1ccccc1`: above 100 µM; `CC1C=C(OC(=O)c2ccccc2)C(=O)C(n2cc(F)c(=O)[nH]c2=O)O1` (stereo unspecified): above 100 µM.
For the compound `CCc1ccccc1NC(=O)C(=O)CC(=O)c1sc(Nc2ccccc2)nc1C`, the TGI is above 100 µM.
As to `CCN(CC)c1ccc(C(=O)c2ccccc2C(=O)O)c(O)c1`, the TGI is above 100 µM.
The same measure, in the same setting: under `Cc1ccc(NC(=O)C(=O)C(C#N)c2ccccc2C)cc1C` (stereo unspecified) stands above 100 µM; under `Nc1ccn(CCNCCn2cnc3nc(N)[nH]c(=O)c32)c(=O)n1`, above 100 µM.
